These results are taken from patent US20250025427A1, “MIXED AMIDE ESTER CONTAINING LIPIDS FOR USE IN LIPID NANOPARTICLES” (Acuitas Therapeutics, Inc., priority 2023, published 2025).

One test concerns human IgG in mouse serum. The test can be described thus: Immunoglobulin G (IgG) mRNA in vivo evaluation using lipid nanoparticle compositions. Details: species or system mice. The following applies: LNP with the cationic lipid, 0.3 mg mRNA/kg, tail vein injection, μg IgG/mL serum 24 hours after administration. The procedure:
(§1) A lipid of Formula (I), DSPC, cholesterol and PEG-lipid of Formula (II) are solubilized in ethanol at a molar ratio of 50:10:38.5:1.5 or 47.5:10:40.7:1.8. Lipid nanoparticles (LNP) are prepared at a total lipid to mRNA weight ratio of approximately 10:1 to 40:1. Briefly, the mRNA is diluted to 0.2 mg/mL in 10 to 50 mM citrate buffer, pH 4 to 6 or 10 to 25 mM acetate buffer, pH 4 to 6. Syringe pumps are used to mix the ethanolic lipid solution with the mRNA aqueous solution at a ratio of about 1:5 to 1:3 (vol/vol) with total flow rates above 15 mL/min. The ethanol is then removed, and the external buffer replaced with PBS by dialysis. Finally, the lipid nanoparticles are filtered through a 0.2 µm pore sterile filter.
Studies are performed in 6-8-week-old CD-1/ICR mice (Charles River or Inotiv) according to guidelines established by an institutional animal care committee (ACC) and the Canadian Council on Animal Care (CCAC). Varying doses of mRNA-lipid nanoparticle are systemically administered by tail vein injection and animals euthanized at a specific time point (e.g., 24 hours) post-administration. The whole blood is collected, and the serum subsequentially separated by centrifuging the tubes of the whole blood at 2000×g for 10 minutes at 4° C. and stored at −80° C. until use for analysis.
For immunoglobulin G (IgG) ELISA (Life Diagnostics Human IgG ELISA kit), the serum samples are diluted at 100 to 20,000 folds with 1× diluent solution. 100 μL of diluted serum is dispensed into anti-human IgG coated 96-well plate in duplicate alongside human IgG standards and incubated in a plate shaker at 150 rpm at 25° C. for 45 minutes. The wells are washed 5 times with 1× wash solution using a plate washer (400 μL/well). 100 μL of HRP conjugate is added into each well and incubated in a plate shaker at the same condition above. The wells are washed 5 times again with 1× wash solution using a plate washer (400 μL/well). 100 μL of TMB reagent is added into each well and incubated in a plate shaker at the same condition above. The reaction is stopped by adding 100 μL of Stop solution to each well. The absorbance is read at 450 nm (A450) with a microplate reader. The amount of human IgG in mouse serum is determined by plotting A450 values for the assay standard against human IgG concentration.
Representative compounds of the disclosure shown in Table 2 were formulated using the following molar ratio: 50% cationic lipid/10% distearoylphosphatidylcholine (DSPC)/38.5% Cholesterol/1.5% PEG lipid 2-[2-(ω-methoxy(polyethyleneglycohooo)ethoxy]-N,N-ditetradecylacetamide) or 47.5% cationic lipid/10% DSPC/40.7% Cholesterol/1.8% PEG lipid. Relative activity was determined by measuring the amount of human IgG […]. The activity was compared at a dose of 1.0 or 0.3 mg mRNA/kg and expressed as ng luciferase/g liver measured 4 hours after administration, as described in Example 1 or as μg IgG/mL serum measured 24 hours after administration, as described in Example 2. Compound numbers in Table 2 refer to the compound numbers of Table 1.
`CCCCCCCCC(CCCCCC)COC(=O)CCCCCN(CCCCCC)C(=O)CCCCCN(CCCCCC(=O)N(CCCCCC)CCCCCC(=O)OCC(CCCCCC)CCCCCCCC)CCCOC` (stereo not drawn) [Compound I-37, Bis(2-Hexyldecyl) 6,6′-((6,6′-((3-Methoxypropyl)Azanediyl)Bis(Hexanoyl))Bis(Hexylazanediyl))Dihexanoate]: the “Serum IgG (μg/mL) @ 0.3 mg/kg” value was determined as 63.0 ± 22.9 µg/mL.

Turning to `CCCCCCCCCCCCCCCCN(CCCN(C)CCCCCCCC(=O)N(CCCCCCCCCC)CCCCCC(=O)OCC(CCCC)CCCCCC)C(=O)CCCCC(=O)OCC(CCCCCC)CCCCCCCC` (stereo not drawn) [Compound I-38, 2-Hexyldecyl 6-((3-((8-((6-((2-Butyloctyl)Oxy)-6-Oxohexyl)(Decyl)Amino)-8-Oxooctyl)(Methyl)Amino)Propyl)(Hexadecyl)Amino)-6-Oxohexanoate], the “Serum IgG (μg/mL) @ 0.3 mg/kg” value stood at 21.9 ± 8.8 µg/mL.

Consider `CCCCCCCCCCN(CCCCCC(=O)OCC(CCCCCC)CCCCCCCC)C(=O)CCCCCCCN(C)CCCCCCCC(=O)N(CCCCCCCCCC)CCCCCC(=O)OCC(CCCCCC)CCCCCCCC` (stereo not drawn) [Compound I-40, Bis(2-Hexyldecyl) 6,6′-((8,8′-(Methylazanediyl)Bis(Octanoyl))Bis(Decylazanediyl))Dihexanoate], for which the “Serum IgG (μg/mL) @ 0.3 mg/kg” value came out at 13.8 ± 6.0 µg/mL.

With `CCCCCCCCC(CCCCCC)COC(=O)CCCCCN(CCCCCCCC)C(=O)CCCCCCCN(C)CCCCCCCC(=O)N(CCCCCCCC)CCCCCC(=O)OCC(CCCCCC)CCCCCCCC` (stereo not drawn) [Compound I-41, Bis(2-Hexyldecyl) 6,6′-((8,8′-(Methylazanediyl)Bis(Octanoyl))Bis(Octylazanediyl))Dihexanoate], the “Serum IgG (μg/mL) @ 0.3 mg/kg” value came to 19.2 ± 6.8 µg/mL.

In the case of `CCCCCCCCC(CCCCCC)COC(=O)CCCCCN(CCCCCCCCN(C)CCCCCCCCN(CCCCCC(=O)OCC(CCCCCC)CCCCCCCC)C(=O)CCCCC)C(=O)CCCCC` (stereo not drawn) [Compound I-43, Bis(2-Hexyldecyl) 6,6′-(((Methylazanediyl)Bis(Octane-8,1-Diyl))Bis(Hexanoylazanediyl))Dihexanoate], the “Serum IgG (μg/mL) @ 0.3 mg/kg” value was found to be 49.9 ± 14.8 µg/mL.

`CCCCCCCCC(CCCCCC)COC(=O)CCCCC(=O)N(CCCCCC)CCCCCCCCN(C)CCCCCCCCN(CCCCCC)C(=O)CCCCC(=O)OCC(CCCCCC)CCCCCCCC` (stereo not drawn) [Compound I-45, Bis(2-Hexyldecyl) 6,6′-(((Methylazanediyl)Bis(Octane-8,1-Diyl))Bis(Hexylazanediyl))Bis(6-Oxohexanoate)]: the “Serum IgG (μg/mL) @ 0.3 mg/kg” value stood at 18.3 ± 4.6 µg/mL.

Take `CCCCCCCCC(CCCCCC)COC(=O)CCCCCN(CCCCCC)C(=O)CCCCCN(C)CCCCCCCC(=O)N(CCCCCC)CCCCCCOC(=O)C(CCCCCC)CCCCCCCC` (stereo not drawn) [Compound I-46, 7,23,32-Trihexyl-16-Methyl-8,22,29-Trioxo-30-Oxa-7,16,23-Triazatetracontyl 2-Hexyldecanoate]: the “Serum IgG (μg/mL) @ 0.3 mg/kg” value was determined as 34.4 ± 11.3 µg/mL.

Turning to `CCCCCCCCC(CCCCCC)COC(=O)CCCCCN(CCCCCC)C(=O)CCN(C)CCC(=O)N(CCCCCC)CCCCCC(=O)OCC(CCCCCC)CCCCCCCC` (stereo not drawn) [Compound I-48, Bis(2-Hexyldecyl) 6,6′-((3,3′-(Methylazanediyl)Bis(Propanoyl))Bis(Hexylazanediyl))Dihexanoate], the “Serum IgG (μg/mL) @ 0.3 mg/kg” value was found to be 27.5 ± 12.7 µg/mL.

Take `CCCCCCCCC(CCCCCC)COC(=O)CCCCCCCCCN(CCCCCC)C(=O)CCCN(C)CCCC(=O)N(CCCCCC)CCCCCCCCCC(=O)OCC(CCCCCC)CCCCCCCC` (stereo not drawn) [Compound I-50, Bis(2-Hexyldecyl) 10,10′-((4,4′-(Methylazanediyl)Bis(Butanoyl))Bis(Hexylazanediyl))Bis(Decanoate)]: the “Serum IgG (μg/mL) @ 0.3 mg/kg” value was 11.6 ± 8.2 µg/mL.

Regarding `CCCCCCCCC(CCCCCC)COC(=O)CCCCCN(CCCCCC)C(=O)CCCN(C)CCCC(=O)N(CCCCCC)CCCCCC(=O)OCC(CCCCCC)CCCCCCCC` (stereo not drawn) [Compound I-52, Bis(2-Hexyldecyl) 6,6′-((4,4′-(Methylazanediyl)Bis(Butanoyl))Bis(Hexylazanediyl))Dihexanoate], the “Serum IgG (μg/mL) @ 0.3 mg/kg” value worked out at 13.0 ± 4.1 µg/mL.

In the next test the test system is luciferase protein (FLuc mRNA) expression in liver. In words: Luciferase mRNA in vivo evaluation using lipid nanoparticle compositions. Details: species or system mice. The following applies: LNP with the cationic lipid, 0.3 mg mRNA/kg, tail vein injection, ng luciferase/g liver 4 hours after administration. As for the experimental part: as §1
Studies are performed in 6-8-week-old female C57BL/6 mice (Charles River) or 8-10-week-old CD-1 mice (Charles River or Inotiv) according to guidelines established by an institutional animal care committee (ACC) and the Canadian Council on Animal Care (CCAC). Varying doses of mRNA-lipid nanoparticle are systemically administered by tail vein injection and animals euthanized at a specific time point (e.g., 4 hours) post-administration. Liver and spleen are collected in pre-weighed tubes, weights determined, immediately snap frozen in liquid nitrogen, and stored at −80° C. until processing for analysis. […]
`CCCCCCCCCCN(CCCCCCCCCC)C(=O)CCCCCCCN(C)CCCCCCCC(=O)NCCCCCC(=O)OCC(CCCCCC)CCCCCCCC` (stereo not drawn) [Compound I-3, 2-Hexyldecyl 6-(8-((8-(Didecylamino)-8-Oxooctyl)(Methyl)Amino)Octanamido)Hexanoate]: the “Liver Luc (ng/g) @ 0.3 mg/kg” value was 8191 ± 2369 ng/g.

Still in this test, the particulars now being: LNP with the cationic lipid, 1.0 mg mRNA/kg, tail vein injection, ng luciferase/g liver 4 hours after administration.
For the compound `CCCCCCCCCCN(CCCCCCCCCC)C(=O)CCCCCCCN(C)CCCCCCCC(=O)NCCCCCC(=O)OCC(CCCCCC)CCCCCCCC` (stereo not drawn) [Compound I-3, 2-Hexyldecyl 6-(8-((8-(Didecylamino)-8-Oxooctyl)(Methyl)Amino)Octanamido)Hexanoate], the “Liver Luc (ng/g) @ 1.0 mg/kg” value came to 25381 ± 4022 ng/g.
